Data set [1] is described as follows: Hydrophilicity-lipophilicity index for the active ingredient in single dose (Ip.a.), calculation method. The following applies: for Ip.a.: scale 0-20. The source says: Where Ip.a. means the hydrophilicity-lipophilicity index for the active ingredient in single dose.
Coefficient X is equal to the solubility of the active ingredient S (mg/liter) divided by the amount of active ingredient expressed in mg per single dose (mg/dose).
A substance that is miscible in any ratio with water has an infinite water solubility, in such case considering a substance as the solute and the other as the solvent may be meaningless. Therefore, in this condition use of the above equation, which presents a horizontal asymptote, is not necessarily required. Instead, the value 20 on the scale of hydrophilicity lipophilicity is arbitrarily assigned, while the value 0, or better tending to 0, is attributed to substances considered insoluble in water.
In the case of molecules considered insoluble, the value on the solubility index scale will tend to zero, and therefore, the scale can be considered for convenience between the values 0-20.

The conditions of data set [2]: cited from earlier work.
Data set [3] in a line: Solubility of active ingredients in water. Type of data set: physicochemical. To be noted: for Solubility: 20 °C. An excerpt: The solubility (S) of a solute is the maximum amount of solute that dissolves in a fixed amount of a particular solvent at a specified temperature.
Setting [4] is: mg per 1000 ml of water at 20° C.-25° C., 0.00001 used for practically insoluble substances.

≈ marks a conversion by molar mass, not a printed value. Read-outs that look alike come from different tables or passages of the source.

For the compound `N[C@@H](Cc1ccc(O)cc1)C(=O)O` [tyrosine], the “X = (mg/l)/(mg/dose)” value in data set [1] (dose 45.3 mg) is recorded as 10 (mg/l)/(mg/dose); in data set [1] (dose 453.0 mg) it was 1 (mg/l)/(mg/dose); in data set [1] (dose 498.3 mg), 0.9091 (mg/l)/(mg/dose); in data set [1] (dose 543.6 mg) it was 0.8333 (mg/l)/(mg/dose); in data set [1] (dose 588.9 mg) it was 0.7692 (mg/l)/(mg/dose); in data set [1] (dose 634.2 mg) it was 0.7143 (mg/l)/(mg/dose). Moreover, the Ip.a. was 20 in data set [1] (dose 45.3 mg); 19.62 in data set [1] (dose 453.0 mg); 16.85 in data set [1] (dose 498.3 mg); 5.858 in data set [1] (dose 543.6 mg); 0.7258 in data set [1] (dose 588.9 mg); 0.08114 in data set [1] (dose 634.2 mg). Moreover, the “S” value in data set [2] (25° C.) was 453 mg/L.

As to `CS(C)(=O)=O` [Dimethyl sulfone], in data set [1] (dose 500 mg), the “X = (mg/l)/(mg/dose)” value was 300 (mg/l)/(mg/dose) and the Ip.a. is on record as 20. Besides, in data set [2] (at 25° C.), the Solubility is reported as 150 g/L at. Besides, the “S” value in data set [2] (setting [4]) is 150000 mg/L.

As to `Cc1cc2nc3c(=O)[nH]c(=O)nc-3n(C[C@H](O)[C@H](O)[C@H](O)CO)c2cc1C` [Riboflavin (form A), Riboflavin], the Solubility in data set [2] (volume of water that dissolves 1 g, varies with crystal form) was 1 g/3-15 L **.

As for `COC1=C(OC)C(=O)C(C/C=C(\C)CC/C=C(\C)CC/C=C(\C)CC/C=C(\C)CC/C=C(\C)CC/C=C(\C)CC/C=C(\C)CC/C=C(\C)CC/C=C(\C)CCC=C(C)C)=C(C)C1=O` [Ubidecarenone], in data set [1] (dose 10 mg), the “X = (mg/l)/(mg/dose)” value was 0.000001 (mg/l)/(mg/dose) and the Ip.a. is given as 0.00000. Besides, in data set [2] (in water, in words), the Solubility result is listed as “practically insoluble in water”. Besides, the “S” value in data set [2] (setting [4]) is 0.00001 mg/L.

Vitamin A: in data set [1] (dose 0.1 mg), the “X = (mg/l)/(mg/dose)” value is reported as 0.0001 (mg/l)/(mg/dose) and the Ip.a. was 0.00000. Further, the Solubility result in data set [2] (in water, in words) is on record as “practically insoluble in water”. In data set [2] (setting [4]), the “S” value is 0.00001 mg/L.

Consider Vitamin E, for which, in data set [1] (dose 10 mg), the “X = (mg/l)/(mg/dose)” value was 0.000001 (mg/l)/(mg/dose) and the Ip.a. was 0.00000. Further, the Solubility entry in data set [2] (in water, in words) is recorded as “practically insoluble in water”. Also, in data set [2] (setting [4]), the “S” value is 0.00001 mg/L.

In the case of `Cc1cc2nc3c(=O)[nH]c(=O)nc-3n(C[C@H](O)[C@H](O)[C@H](O)CO)c2cc1C` [Riboflavin], the Solubility was approximately 80 µg/mL (≈ 213 µM) in data set [3] (deduced experimentally) and 3 to 15 L in data set [2] (1 g in this volume, depending on the crystalline form, Merck Index).

In the case of `Oc1ccc(C=Cc2cc(O)cc(O)c2)cc1` [resveratrol], the Solubility in data set [2] (in water) is given as 0.003 g in 100 ml.

In turn, `Cc1cc2nc3c(=O)[nH]c(=O)nc-3n(C[C@H](O)[C@H](O)[C@H](O)CO)c2cc1C` [Riboflavin (form B), Riboflavin] had a Solubility in data set [3] (riboflavin form B, in water) of 80 µg/mL (≈ 213 µM). Moreover, the “S” value in data set [3] (riboflavin form B) is 80 mg/L.

For `CSCC[C@H](N)C(=O)O` [L-Methionine], in data set [1] (dose 300 mg), the “X = (mg/l)/(mg/dose)” value was 160 (mg/l)/(mg/dose) and the Ip.a. is reported as 20. Besides, the Solubility in data set [2] (at 293 K) is reported as 48 g/l at 293 K. In data set [2] (setting [4]), the “S” value was 48000 mg/L.

These data come from patent US20160081935A1, “DOSAGE FORMS FOR ORAL ADMINISTRATION OF ACTIVE SUBSTANCES” (GIULIANI S.P.A., priority 2013, published 2016).
